# Key:
# [1] = Stability evaluation of solution formulation (Experimental Example 2); assay type: physicochemical; settings: for Production rate of Alvocidib / Residual rate: solution formulation
# Description: For Example 1, Example 2, Example 5, Example 6, Comparative Example 13 and Comparative Example 14, the attrition rate of the test compound and the conversion rate of the test compound to Alvocidib in a solution formulation were calculated by the following method.
# Example 1, Example 2, Example 5, Example 6, Comparative Example 13 and Comparative Example 14 were each added to buffer solutions adjusted to pH 3.0, 4.0 and 5.0, respectively, at a concentration of 0.1 mg/mL, and left at 5° C. After 0, 1, 2 and 4 weeks, the residual rates of the compounds of Example 1, Example 2, […], Comparative Example 13 and Comparative Example 14 and the production rate of Alvocidib were determined by HPLC.
# The buffer solutions used at each pH are as follows. • pH 3.0: 5 mM tartrate buffer solution/10% sucrose solution (pH 3.0) • pH 4.0: 5 mM tartrate buffer solution/10% sucrose solution (pH 4.0) • pH 5.0: 5 mM tartrate buffer solution/10% sucrose solution (pH 5.0)
# (§1) The measurement conditions for HPLC are as follows.
# • column: Acquity UPLC BEH C18, 1.7 um, 50×2.1 mm • column temperature: 40° C. • mobile phase: • A: water containing 0.1% trifluoroacetic acid • B: acetonitrile • A/B (min): • 80/20(0)→75/25(3)→0/100(3.5)→0/100(4)→80/20(4.01)→80/20(5) • flow rate: 0.8 mL/min • detection: ultraviolet visible detector, measurement wavelength 254 nm • injection: 3 μL
# [2] = Evaluation of conversion rate to active form in buffer solution (Experimental Example 1); assay type: physicochemical
# Description: For Examples 1 to 16 and Comparative Examples 1 to 14, the attrition rate of the test compound and the conversion rate of the test compound to Alvocidib in a buffer solution were calculated by the following method.
# Examples 1 to 16 and Comparative Examples 1 to 14 were each left in buffer solutions adjusted to pH 5.0, 5.5, 6.0, 6.5, 7.0 and 7.4, respectively, at a concentration of 25 umol/L at 37° C. After 0, 0.5, 1, 2 and 3 hours, the residual rates of the compounds of Examples […] and the production rate of Alvocidib were determined by HPLC.
# The buffer solutions used at each pH are as follows. • pH 5.0: 50 mM citrate buffer solution (pH 5.0) • pH 5.5: 50 mM citrate buffer solution (pH 5.5) • pH 6.0: 50 mM phosphate buffer solution (pH 6.0) • pH 6.5: 50 mM phosphate buffer solution (pH 6.5) • pH 7.0: 50 mM phosphate buffer solution (pH 7.0) • pH 7.4: 50 mM phosphate buffer solution (pH 7.4)
# as §1
smiles,measurement,setting,value
"CNCCN(C)C(=O)Oc1cc(O)c2c(=O)cc(-c3ccccc3Cl)oc2c1[C@H]1CCN(C)C[C@H]1O [Comparative Example 14, reference compound]",Stability / conversion to Alvocidib in solution formulation at pH 3,"[1]; pH 3, 5° C., up to 4 weeks",gradually converted to Alvocidib
same,Conversion to Alvocidib in solution formulation at pH 5 after 4 weeks,"[1]; pH 5, 5° C., after 4 weeks",almost completely converted to Alvocidib
same,Production rate of Alvocidib,"[1]; pH3.0, 0 week",1.3%
same,Residual rate,"[1]; pH3.0, 0 week",98.5%
same,Production rate of Alvocidib,"[1]; pH3.0, 1 week",2.7%
same,Residual rate,"[1]; pH3.0, 1 week",97.1%
same,Production rate of Alvocidib,"[1]; pH3.0, 2 week",3.9%
same,Residual rate,"[1]; pH3.0, 2 week",95.8%
same,Production rate of Alvocidib,"[1]; pH3.0, 4 week",6.1%
same,Residual rate,"[1]; pH3.0, 4 week",93.6%
same,Production rate of Alvocidib,"[1]; pH4.0, 0 week",2.2%
same,Residual rate,"[1]; pH4.0, 0 week",97.5%
same,Production rate of Alvocidib,"[1]; pH4.0, 1 week",12.8%
same,Residual rate,"[1]; pH4.0, 1 week",86.7%
same,Production rate of Alvocidib,"[1]; pH4.0, 2 week",21.1%
same,Residual rate,"[1]; pH4.0, 2 week",78.3%
same,Production rate of Alvocidib,"[1]; pH4.0, 4 week",36.2%
same,Residual rate,"[1]; pH4.0, 4 week",63.0%
same,Production rate of Alvocidib,"[1]; pH5.0, 0 week",13.2%
same,Residual rate,"[1]; pH5.0, 0 week",86.4%
same,Production rate of Alvocidib,"[1]; pH5.0, 1 week",72.5%
same,Residual rate,"[1]; pH5.0, 1 week",25.7%
same,Production rate of Alvocidib,"[1]; pH5.0, 2 week",90.1%
same,Residual rate,"[1]; pH5.0, 2 week",8.1%
same,Production rate of Alvocidib,"[1]; pH5.0, 4 week",97.1%
same,Residual rate,"[1]; pH5.0, 4 week",1.1%
same,Production rate of Alvocidib,"[2]; pH5.0, 0 hr",1.2%
same,Residual rate,"[2]; pH5.0, 0 hr",97.3%
same,Stability in buffer solution at pH 5,"[2]; pH 5, 37° C., up to 2 or 3 hours",unstable
same,Conversion to Alvocidib at pH 5 within 3 hours,"[2]; pH 5, 37° C., within 3 hours",mostly converted to Alvocidib
same,Production rate of Alvocidib,"[2]; pH5.0, 0.5 hr",17.9%
same,Residual rate,"[2]; pH5.0, 0.5 hr",80.3%
same,Production rate of Alvocidib,"[2]; pH5.0, 1 hr",31.1%
same,Residual rate,"[2]; pH5.0, 1 hr",66.8%
same,Production rate of Alvocidib,"[2]; pH5.0, 2 hr",53.7%
same,Residual rate,"[2]; pH5.0, 2 hr",45.6%
same,Production rate of Alvocidib,"[2]; pH5.0, 3 hr",68.5%
same,Residual rate,"[2]; pH5.0, 3 hr",30.7%
same,Production rate of Alvocidib,"[2]; pH5.5, 0 hr",1.4%
same,Residual rate,"[2]; pH5.5, 0 hr",97.2%
same,Production rate of Alvocidib,"[2]; pH5.5, 0.5 hr",44.2%
same,Residual rate,"[2]; pH5.5, 0.5 hr",53.8%
same,Production rate of Alvocidib,"[2]; pH5.5, 1 hr",67.2%
same,Residual rate,"[2]; pH5.5, 1 hr",30.3%
same,Production rate of Alvocidib,"[2]; pH5.5, 2 hr",88.5%
same,Residual rate,"[2]; pH5.5, 2 hr",8.7%
same,Production rate of Alvocidib,"[2]; pH5.5, 3 hr",93.9%
same,Residual rate,"[2]; pH5.5, 3 hr",2.9%
same,Production rate of Alvocidib,"[2]; pH6.0, 0 hr",1.9%
same,Residual rate,"[2]; pH6.0, 0 hr",96.7%
same,Production rate of Alvocidib,"[2]; pH6.0, 0.5 hr",88.1%
same,Residual rate,"[2]; pH6.0, 0.5 hr",9.0%
same,Production rate of Alvocidib,"[2]; pH6.0, 1 hr",95.7%
same,Residual rate,"[2]; pH6.0, 1 hr",1.2%
same,Production rate of Alvocidib,"[2]; pH6.0, 2 hr",97.0%
same,Residual rate,"[2]; pH6.0, 2 hr",0.0%
same,Production rate of Alvocidib,"[2]; pH6.0, 3 hr",97.1%
same,Residual rate,"[2]; pH6.0, 3 hr",0.0%
same,Production rate of Alvocidib,"[2]; pH6.5, 0 hr",3.2%
same,Residual rate,"[2]; pH6.5, 0 hr",95.4%
same,Production rate of Alvocidib,"[2]; pH6.5, 0.5 hr",97.0%
same,Residual rate,"[2]; pH6.5, 0.5 hr",0.0%
same,Production rate of Alvocidib,"[2]; pH6.5, 1 hr",96.7%
same,Residual rate,"[2]; pH6.5, 1 hr",0.0%
same,Production rate of Alvocidib,"[2]; pH6.5, 2 hr",98.2%
same,Residual rate,"[2]; pH6.5, 2 hr",0.0%
same,Production rate of Alvocidib,"[2]; pH6.5, 3 hr",97.6%
same,Residual rate,"[2]; pH6.5, 3 hr",0.0%
same,Production rate of Alvocidib,"[2]; pH7.0, 0 hr",6.9%
same,Residual rate,"[2]; pH7.0, 0 hr",91.7%
same,Production rate of Alvocidib,"[2]; pH7.0, 0.5 hr",96.8%
same,Residual rate,"[2]; pH7.0, 0.5 hr",0.0%
same,Production rate of Alvocidib,"[2]; pH7.0, 1 hr",96.8%
same,Residual rate,"[2]; pH7.0, 1 hr",0.0%
same,Production rate of Alvocidib,"[2]; pH7.0, 2 hr",96.7%
same,Residual rate,"[2]; pH7.0, 2 hr",0.0%
same,Production rate of Alvocidib,"[2]; pH7.0, 3 hr",96.7%
same,Residual rate,"[2]; pH7.0, 3 hr",0.0%
same,Production rate of Alvocidib,"[2]; pH7.4, 0 hr",14.2%
same,Residual rate,"[2]; pH7.4, 0 hr",84.4%
same,Production rate of Alvocidib,"[2]; pH7.4, 0.5 hr",97.3%
same,Residual rate,"[2]; pH7.4, 0.5 hr",0.0%
same,Production rate of Alvocidib,"[2]; pH7.4, 1 hr",97.2%
same,Residual rate,"[2]; pH7.4, 1 hr",0.0%
same,Production rate of Alvocidib,"[2]; pH7.4, 2 hr",97.2%
same,Residual rate,"[2]; pH7.4, 2 hr",0.0%
same,Production rate of Alvocidib,"[2]; pH7.4, 3 hr",97.2%
same,Residual rate,"[2]; pH7.4, 3 hr",0.0%
